Test results as given in US10709769B2, “Use of endostatin peptides for the treatment of fibrosis” (University of Pittsburgh—Of the Commonwealth System of …, priority 2009, dated 2020).

Tested on: Human umbilical vein endothelial cells (HUVECs)
Assay: Tubular formation assay in Matrigel
Format: cell-based
Details: 50 nM, 24 hours
Experimental: The ability of endostatin peptide to inhibit angiogenesis was examined in tubular formation assay using Matrigel® culture. Human umbilical vein endothelial cells (HUVECs) were maintained in endothelial cell basal medium-2 (EBM-2; Clonetics, San Diego, Calif.) supplemented with EBM-2 MV SingleQuots®. HUVECs (5×10^4) were cultured in duplicate on 24-well Matrigel® plates (BD Biosciences, San Diego, Calif.) alone, or in the presence of rE or E4 peptide (50 nM) in EBM-2 at 37° C. DMSO was used as vehicle control. After 24 hours, images were captured using a […] microscope. The degree of cord formation was quantified by measuring the area occupied by tubes in 6 random fields per well. Three independent experiments were performed.

With “H-^133SYCETWRTEAPSATGQASSLLGGRLLGQSAASCHHAYIVLCIENSFMT^180-CONH2 (H-SYCETWRTEAPSATGQASSLLGGRLLGQSAASCHHAYIVLCIENSFMT-NH2; cysteine pairing not given here; UniProt P39060 1704-1751, looked up, fragment) [E4, amino acids 133-180 of human endostatin; differs from E3 by the presence of a carboxy-terminal amide]” the “inhibition of tubular structure formation” value was “modest”.
